Test results: paper PMC10945332, “Precision peptide theranostics: developing N- to C-terminus optimized theranostics targeting cholecystokinin-2 receptor” (Theranostics, 2024)
Like-named read-outs stand apart in the source and are kept apart here. Where a SMILES comes first, the peptide text is derived from it. [ ]: non-standard residue; d: D form. The star is where a group is joined. DOTA = O=C(O)CN1CCN(CC(=O)O)CCN(CC(=O)*)CCN(CC(=O)O)CC1; 1Nal = N[C@@H](Cc1cccc2ccccc12)C(=O)O; NMeF = CN[C@@H](Cc1ccccc1)C(=O)O; NMeNle = CCCC[C@H](NC)C(=O)O; Sar = CNCC(=O)O

Columns and labels:
CCK2R = system: CCK2R; design: method as in PMID 33826325; conditions: cited from earlier work
human CCK2R = target: T1, human CCK2R (Homo sapiens, UniProt P32239); experiment: Competitive binding against [177Lu]Lu-DOTA-CP04 in A431-CCK2R cells; conditions: linear peptide vs its Ga-DOTA form
T1 construct: stably transfected to over-express the human full-length CCK2R (A431-CCK2R); expressed in transfected cells
T1 sequence (P32239 1-447): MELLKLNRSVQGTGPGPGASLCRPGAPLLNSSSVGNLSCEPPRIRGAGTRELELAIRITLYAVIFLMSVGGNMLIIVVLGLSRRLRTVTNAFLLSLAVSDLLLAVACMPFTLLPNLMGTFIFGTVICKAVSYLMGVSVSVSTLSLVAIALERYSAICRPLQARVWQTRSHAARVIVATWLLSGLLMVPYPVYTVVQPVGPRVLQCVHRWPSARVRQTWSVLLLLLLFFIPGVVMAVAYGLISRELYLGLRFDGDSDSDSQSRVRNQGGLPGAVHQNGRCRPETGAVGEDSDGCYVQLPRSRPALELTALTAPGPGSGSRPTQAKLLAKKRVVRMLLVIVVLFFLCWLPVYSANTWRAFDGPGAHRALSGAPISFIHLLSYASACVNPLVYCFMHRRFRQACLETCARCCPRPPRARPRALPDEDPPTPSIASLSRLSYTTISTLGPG
Protocol: Materials and Methods: Biology […]
In Vitro CCK2R-Ligand Competitive Binding Assays
All CCK2R binding experiments were conducted using A431 (human epidermoid carcinoma) […]
cells stably transfected to over-express the human full-length CCK2R (A431-CCK2R) (gifted […]
by Dr. Elisabeth von Guggenberg, Medizinische Universität Innsbruck).[41] As a negative […]
control, A431 cells stably transfected with an empty vector were analysed simultaneously […]
(A431-EV). All A431 cells were maintained in DMEM (Gibco, Australia) media supplemented […]
with 10% foetal calf serum and 250 µg/mL G418 as described previously.[32]
The affinity of all peptides for the CCK2R was evaluated using competitive binding assays […]
Briefly, 48 hours before the experiment […]
cells were plated at a density of 300,000 cells per well in 12 well plates. On the day of the […]
experiment, linear peptides were diluted in DMEM supplemented with 1% foetal calf serum to […]
DOTA-CP04 was added to each dilution. Cells were washed twice in ice-cold binding buffer […]
(DMEM supplemented with 1% foetal calf serum) and resuspended in 1 mL of the pre-prepared […]
peptide mix before being incubated at room temperature for 1 hour. Post-incubation the media […]
was removed and kept for analysis (unbound fraction) and the cells were washed twice in ice- […]
cold PBS which was pooled with the unbound fraction. Finally, 1 M NaOH (150µL) was added […]
to the wells and allowed to incubate for 5 min before lysates were collected (bound fraction).
A small volume of lysate was kept aside to determine protein concentration using the Pierce® BCA protein assay kit (Thermo Fisher, Australia). All samples were analysed using the Perkin […]
normalised according to protein concentration. Half maximal inhibitory concentration (IC50) was determined using nonlinear regression calculated using Gr aphPad Prism Software (GraphPad Software, California, USA). […]

[1] = mouse, in vivo
Protocol: (§1) In order to assess these promising ligands as potential theranostics, the library of [^68Ga]Ga-DOTA-peptides was evaluated using static small animal PET imaging and quantifying biodistribution studies. This study was performed to investigate tumor uptake as well as the accumulation of radioligands in other organs. Mice bearing A431-CCK2R tumors were imaged at 1- and 2 hours post tracer injection, and tracer biodistribution was evaluated at the 1 hour and 2.5 hour time points to quantify tumor uptake and retention. […]
(§2) Small Animal PET Imaging and Biodistribution Studies
(§3) Female NSG mice (age 11-14 weeks) were sourced from Animal Resources Centre, (Canning Vale, Western Australia) and were inoculated subcutaneously on the right flank with 1-3 x 106 […]
(§4) A431-CCK2R cells in PBS:Matrigel (1:1). […]
(§5) Mice were assigned to imaging and/or biodistribution groups (tumour volumes: 119-327 mm3).
(§6) The respective 68Ga labelled tracer (1.63–3.81 MBq, 170µL, 13.7–14.2 pmoles) containing vehicle solution (75µL, DMSO:Tween 80: water, 2:2:6 v/v/v) was then administered to mice intravenously via tail vein injection. Three mice were euthanized for biodistribution 1 hour post injection (n=3) and selected tissues were excised, weighed, and counted using a Capintec (Captus 4000e) gamma counter. Three mice were anaesthetised using 1.5% isoflurane and imaged at 1 hour (n=3) and 2 hours (n=3) with a G8 Small Animal PET/CT scanner (Perkin […]
(§7) Elmer/Sofie Biosciences). A 10 min static PET scan was acquired, followed immediately by a CT scan (Supplementary Data, pS51–S55). PET images were acquired using the G8 acquisition engine software and reconstructed using a 3D maximal likelihood and expectation maximization (ML-EM) algorithm. PET images were analysed using VivoQuant software, version 3.0 (inviCRO Imaging Services and Software) to quantify maximum standardised uptake value in regions of interest (SUVmax). Background regions for imaging experiments were calculated by quantitating mean standardised uptake value (SUVmean) of the abdomen and gut region. The region of interest was selected due to low uptake in abdomen/gut during imaging. After imaging the 2-hour time point, mice organs were harvested for biodistribution […]
(§8) For blocking CCK2R binding a solution of N-[(3R)-2,3-Dihydro-1-[2-(2-methylphenyl)-2-oxoethyl]-2-oxo-5-phenyl-1H-1,4-benzodiazepin-3-yl]-N′-(3-methylphenyl)-urea (YM022; Sigma Aldrich) was used. YM022 (75µL of a 1 mg/ml solution constituting DMSO:Tween 80: water, 2:2:6 v/v/v) was added to the respective 68Ga labelled tracer (1.41–3.61 MBq, 100 µL, 13.7–14.2 pmoles) and this mixture ([…]) was administered in three mice intravenously via tail vein injection and organs harvested at 1 hour post injection for biodistribution analysis, as above.
(§9) All animal experiments were performed with the approval of the Peter MacCallum Cancer Centre Animal Experimentation Ethics Committee and in accordance with the Australian code for the care and use of animals for scientific purposes, 8th Edition, 2013 (AEEC Approval

[2] = format: physicochemical
Protocol: Lipophilicity, expressed as the octanol-water partition coefficient, constitutes an important property in drug action, influencing both pharmacokinetic and pharmacodynamics processes. The distribution coefficient (LogD7.4) of [^68Ga]Ga-DOTA-peptides was determined by measuring radioactivity distribution in the aqueous phase (phosphate buffer pH7.4) and the organic phase (n-octanol). […]
To determine the distribution coefficient (logD 7.4), 68Ga radiolabeled peptides [68Ga]Ga-DOTA-GA4, [68Ga]Ga-DOTA-GA7, and [68Ga]Ga-DOTA-GA11–GA13 were diluted to approximately 20 pmol/mL in PBS (pH 7.4) and an equal volume of n-octanol was added. The mixture was vortexed vigorously for 10 cycles of 1 min at room temperature before being centrifuged for 6 min to separate the two phases. Equal volumes from each phase were aliquoted into individual counting tubes and analysed for 1 min using the Perkin Elmer 2480 Wizard2™ gamma counter (PerkinElmer, Massachusetts, USA). The distribution coefficient was calculated using the following equation LogD = […]. […]

in vivo = conditions: female, NSG, mouse, iv, total radioactivity; for SUV at 1 h / SUV at 2 h: SUVmax
Protocol: as §1, §2, §3, §4, §5, §6, §7, §8, §9

[3] = format: in vitro ADME, mouse; conditions: for half-life: mouse, tissue homogenate
Protocol: Metabolic stability is an important determinant of the efficacy of peptide radiopharmaceuticals and their progression as promising theranostic candidates. In vitro, metabolic degradation through hepatic and renal enzymes can be assessed by utilizing liver and kidney tissue homogenates. Radiolabeled peptides [^68Ga]Ga-DOTA-GA4, and D-Ala substituted variants [^68Ga]Ga-DOTA-GA7, [^68Ga]Ga-DOTA-GA11-GA13 were incubated in liver and kidney mouse homogenates, in human serum at 37°C, and in HEPES buffer (pH 7.4) as a negative control. Following a time course experiment, the metabolites were analyzed using HPLC to quantify the % breakdown of the respective parent peptide. […]
To assess the stability of 68Ga radiolabeled peptides against enzymatic degradation, duplicate samples (750-900 pmol/mL, 2-5MBq) were incubated at 37 ℃ with pooled human serum, 15% […]
mouse kidney homogenate, 30% mouse liver homogenate or 20 mM HEPES, pH 7.3 (control).
Human blood was collected, and serum prepared using SSTII advance vacutainer tubes according to the manufacturer’s instructions (Becton Dickinson, New Jersey, USA). Mouse kidney and liver homogenates were prepared by washing the tissues in ice-cold HEPES buffer, pH 7.3 and placing them in pre-chilled tubes containing HEPES buffer and 2.38 mm metal beads (Mo-Bio Laboratories, Hilden, Germany). Tissues were homogenised using the PowerLyzer24 homogeniser (Qiagen, Hilden, Germany) according to the manufacturer’s instructions. 68Ga radiolabeled peptides were then incubated with the various lysates at 37 ℃ and samples were collected at 15, 30, 60 and 90 min. Reactions were terminated by addition of an equal volume of acetonitrile and centrifugation for 2 min at 15,000 rpm. Supernatants were diluted in water before being analysed by HPLC using a Kinetex C18 XB column (5µm

[4] = 3 mg/kg, Uptake in A431-CCK2R Tumors, 1 hr Blocked
[5] = Uptake in A431-CCK2R Tumors, 1 hr

tissue uptake at 1 h [1, 4] [%ID/g]	tissue uptake at 1 h [1, 5] [%ID/g]	tissue uptake at 2.5 h ([1]; Uptake in A431-CCK2R Tumors) [%ID/g]	tissue uptake at 1 h ([1]; Uptake in Organs: Blood) [%ID/g]	tissue uptake at 1 h ([1]; Uptake in Organs: Heart) [%ID/g]	tissue uptake at 1 h ([1]; Uptake in Organs: Kidneys) [%ID/g]	tissue uptake at 1 h ([1]; Uptake in Organs: Liver) [%ID/g]	tissue uptake at 1 h ([1]; Uptake in Organs: Lungs) [%ID/g]	tissue uptake at 1 h ([1]; Uptake in Organs: Muscle) [%ID/g]	tissue uptake at 1 h ([1]; Uptake in Organs: Spleen) [%ID/g]	tissue uptake at 1 h ([1]; Uptake in Organs: Stomach) [%ID/g]	logD [2]	tissue to tissue ratio at 1 h (in vivo)	SUV at 1 h (in vivo) [SUV]	SUV at 2 h (in vivo) [SUV]	Structure (SMILES)	other results
–	–	–	–	–	–	–	–	–	–	–	–	–	–	–	CCCC[C@@H](C(=O)N[C@@H](CC(=O)O)C(=O)N[C@@H](Cc1cccc2ccccc12)C(N)=O)N(C)C(=O)[C@H](Cc1c[nH]c2ccccc12)NC(=O)CN(C)C(=O)[C@H](Cc1ccc(O)cc1)NC(=O)[C@H](C)NC(=O)[C@@H](CCC(=O)O)NC(=O)[C@@H](CCC(=O)O)NC(=O)[C@@H](CCC(=O)O)NC(=O)[C@@H](CCC(=O)O)NC(=O)[C@@H](CCC(=O)O)NC(=O)[C@H](N)CCC(=O)O [GA1, [D-Glu]6-Ala-Tyr-NMeGly-Trp-NMeNle-Asp-Nal-NH2] (H-[dE][dE][dE][dE][dE][dE]AY[Sar]W[NMeNle]D[1Nal]-NH2)	affinity to the CCK2R target (CCK2R; previously investigated): sub-nanomolar; IC50 (CCK2R; previously shown, Ga-DOTA-GA1 form, read-out: binding affinity (IC50) against CCK2R): 50 pM; fold decrease in affinity for CCK2R without gallium coordinated DOTA at the N-terminus (human CCK2R): 5 fold
2.07 ± 0.15	5.6 ± 1.16	5.42 ± 0.7	0.46 ± 0.08	0.27 ± 0.08	7.38 ± 1.54	0.29 ± 0.01	0.59 ± 0.02	0.09 ± 0.02	0.34 ± 0.08	1.04 ± 0.06	-3.56 ± 0.01	14.4 ± 2.23	0.39	0.34	CCCC[C@@H](C(=O)N[C@@H](CC(=O)O)C(=O)N(C)[C@@H](Cc1ccccc1)C(N)=O)N(C)C(=O)[C@H](Cc1c[nH]c2ccccc12)NC(=O)CN(C)C(=O)[C@H](Cc1ccc(O)cc1)NC(=O)[C@H](C)NC(=O)[C@@H](CCC(=O)O)NC(=O)[C@@H](CCC(=O)O)NC(=O)[C@@H](CCC(=O)O)NC(=O)[C@@H](C)NC(=O)[C@@H](CCC(=O)O)NC(=O)[C@@H](CCC(=O)O)NC(=O)CN1CCN(CC(=O)O)CCN(CC(=O)O)CCN(CC(=O)O)CC1 [[^68Ga]Ga-DOTA-GA11, metal not drawn] ({DOTA}-[dE][dE][dA][dE][dE][dE]AY[Sar]W[NMeNle]D[NMeF]-NH2)	metabolites in kidney homogenates [3]: no observable metabolites detected; metabolites in liver homogenates [3]: no observable metabolites detected
2.76 ± 0.14	5.71 ± 1.5	7.36 ± 1.16	0.68 ± 0.31	0.3 ± 0.02	8.67 ± 0.8	0.3 ± 0.01	0.57 ± 0.03	0.12 ± 0.02	0.24 ± 0.02	2.22 ± 0.14	-2.88 ± 0.09	17.3 ± 1.84	0.65	0.61	CCCC[C@@H](C(=O)N[C@@H](CC(=O)O)C(=O)N[C@@H](Cc1cccc2ccccc12)C(N)=O)N(C)C(=O)[C@H](Cc1c[nH]c2ccccc12)NC(=O)CN(C)C(=O)[C@H](Cc1ccc(O)cc1)NC(=O)[C@H](C)NC(=O)[C@@H](CCC(=O)O)NC(=O)[C@@H](CCC(=O)O)NC(=O)[C@@H](CCC(=O)O)NC(=O)[C@@H](C)NC(=O)[C@@H](CCC(=O)O)NC(=O)[C@@H](CCC(=O)O)NC(=O)CN1CCN(CC(=O)O)CCN(CC(=O)O)CCN(CC(=O)O)CC1 [[^68Ga]Ga-DOTA-GA7, metal not drawn] ({DOTA}-[dE][dE][dA][dE][dE][dE]AY[Sar]W[NMeNle]D[1Nal]-NH2)	half-life ([3]; Half-life (t1/2) in Kidney Homogenate): 3.76 h; half-life ([3]; Half-life (t1/2) in Liver Homogenate): 5.87 h
